Measurements from US20120316234A1, “ANTHRAQUINONE -BASED COMPOUND, THE SYNTHESIS PROCESSES AND THE APPLICATION THEREOF” (NATIONAL DEFENSE MEDICAL CENTER, priority 2011, published 2012).

Experiments:
[1] = tested on: telomerase (total cell lysates of lung cancer cell line H1299); assay: Telomeric repeat amplification protocol (TRAP) telomerase activity analysis; format: biochemical; conditions: 100 μM of compound; telomerase source H1299 cell lysate; gel electrophoresis, SYBER Green staining
Experimental: Telomerase elongated product (CX primer: [NT]) was replicated by PCR. […] Three different concentrations of compounds were performed.

What does the source list for `COC(=O)CNCCC(=O)Nc1ccc(NC(=O)CCNCC(=O)OC)c2c1C(=O)c1ccccc1C2=O` [Compound 10]?
telomerase inhibition activity (TRAP analysis, FIG. 5) [1]: have telomerase inhibition activity; melting point: 155 to 156 °C

For `COC(=O)CNCCC(=O)Nc1cccc2c1C(=O)c1cccc(NC(=O)CCNCC(=O)OC)c1C2=O` [Compound 21], which “telomerase inhibition activity (TRAP analysis, FIG. 5)” value [1] is on record?
The value was “have telomerase inhibition activity”.

What about the melting point of the same compound?
Its melting point is 150 to 151 °C.

With `O=C(CCl)Nc1ccc2c(c1)C(=O)c1ccc(NC(=O)CCl)cc1C2=O` as the compound, how does the melting point read?
The melting point was 323 to 324 °C.

For `O=C(CCl)Nc1cccc2c1C(=O)c1cccc(NC(=O)CCl)c1C2=O` [Compound 11, 1,5-Bis(chloroacetamido)anthraquinone], which melting point is on record?
The melting point was 349 to 350 °C.
